This is an account of results in publication PMC12837263, “β,β-Dimethylacrylalkannin Restores Colistin Efficacy Against mcr- and TCS-Mediated Resistant Gram-Negative Bacteria via Membrane Disturbance” (Antibiotics, 2025).

For one test, the system named is E. coli 13f4(mcr-1). Briefly: Checkerboard assay (MIC, FICI). It counts as cell-based. To be noted: E. coli 13f4 (mcr-1); antibiotic + β,β-Dim. The method, then:
(§1) The FICI of β,β-Dim–colistin combination was determined by a checkerboard assay. Briefly, two-fold serial dilutions of β,β-Dim and colistin were prepared in a 96-well plate. After incubation at 37 °C for 18 h with bacterial suspension (10^6 CFU/mL), OD600 values were measured. FICI = (MICβ,β-Dim in combination/MICβ,β-Dim) + (MICcolistin in combination/MICcolistin). The synergistic effect of β,β-Dim with other antibiotics was measured in the same way. Synergy was considered to be an FICI ≤ 0.5.

Test [1] relates to K. pneumoniae 667(phoP、pmrA、blaKPC). Description: Checkerboard assay (MIC, FICI). It counts as cell-based. To be noted: K. pneumoniae 667 (phoP, pmrA); antibiotic + β,β-Dim. The method, then:
as §1

On the set-up of test [2]: method as in PMID 31882661. As to conditions: cited from earlier work.

Consider `O=C(O)c1cn(C2CC2)c2cc(N3CCNCC3)c(F)cc2c1=O` [ciprofloxacin], for which the “FICI of β,β-Dim combined with the antibiotic” value (“FICI of β,β-Dim combined” below) (in the test on E. coli 13f4(mcr-1); in test [1]) was over 1 in each case. Consider `CC1(C)S[C@@H]2[C@H](NC(=O)[C@H](N)c3ccccc3)C(=O)N2[C@H]1C(=O)O` [ampicillin], for which the “FICI of β,β-Dim combined” value (in the test on E. coli 13f4(mcr-1); in test [1]) was over 1 each time.

For the compound `CC[C@H]1OC(=O)C[C@@H](O)[C@H](C)[C@@H](O[C@@H]2O[C@H](C)[C@@H](O[C@H]3C[C@@](C)(O)[C@@H](O)[C@H](C)O3)[C@H](N(C)C)[C@H]2O)[C@@H](CC=O)C[C@@H](C)C(=O)/C=C/C(C)=C/[C@@H]1CO[C@@H]1O[C@H](C)[C@@H](O)[C@@H](OC)[C@H]1OC` [tylosin], the “FICI of β,β-Dim combined” value (with E. coli 13f4(mcr-1); in test [1]) was over 1 in each case. On to `CS(=O)(=O)c1ccc([C@@H](O)[C@@H](CF)NC(=O)C(Cl)Cl)cc1` [florfenicol], for which the “FICI of β,β-Dim combined” value (in the test with E. coli 13f4(mcr-1); in test [1]) was over 1 throughout. For the compound `CNC(C)C1CCC(N)C(OC2C(N)CC(N)C(OC3OCC(C)(O)C(NC)C3O)C2O)O1` (stereo not drawn) [gentamicin], the “FICI of β,β-Dim combined” value (in the test on E. coli 13f4(mcr-1); in test [1]) was over 1 throughout. In the case of `C[C@H]1c2cccc(O)c2C(=O)C2=C(O)[C@]3(O)C(=O)C(C(N)=O)=C(O)[C@@H](N(C)C)[C@@H]3[C@@H](O)[C@@H]21` [doxycycline], the “FICI of β,β-Dim combined” value (in the test with E. coli 13f4(mcr-1); in test [1]) was over 1 throughout. In the case of `N#CC(C#N)=NNc1cccc(Cl)c1` [CCCP, carbonyl cyanide 3-chloro phenyl hydrazone], the “reduction of colistin MIC by combination with CCCP” value in test [2] is on record as “approximately 8 fold”. Regarding `CO[C@H]1/C=C/O[C@@]2(C)Oc3c(C)c(O)c4c(O)c(c(/C=N/N5CCN(C)CC5)c(O)c4c3C2=O)NC(=O)/C(C)=C\C=C\[C@H](C)[C@H](O)[C@@H](C)[C@@H](O)[C@@H](C)[C@H](OC(C)=O)[C@@H]1C` [rifampicin], the “FICI of β,β-Dim combined” value (in the test with E. coli 13f4(mcr-1); in test [1]) was over 1 in each case.
